Experimental data: patent publication US8658592B2, “Biologically active peptides and their new uses” (priority 2005, dated 2014)
Marks after values point to notes of the source that are not given here. Ends that are not written are not given here. Peptide text beside a SMILES is read from it.

Legend:
[1] = system: duck hepatitis B virus (DHBV); test: Chongqing duck hepatitis B animal model: serum DHBV DNA and DHBsAg; assay type: in vivo, Chongqing ducks
Method: CMS-017 dissolved in saline was applied to Chongqing duck hepatitis B animal model by intramuscular injection for 28 days. The serum levels of DHBV DNA and DHBsAg (duck hepatitis B surface antigen) were observed by serum dot-blot hybridization and ELISA respectively and compared with blank control.
0.1 ml DHBV DNA positive serum (5×10^7 copies/ml) was inoculated into the abdominal cavity of one-day old Chongqing ducks to set up the hepatitis animal model. 10 days after inoculation, blood samples were collected from the external jugular vein and success of infection was confirmed by dot-blot hybridization with DHBV DNA probe labeled with digoxi^[3].
2) CMS-017 group (n=12): 200 μg/kg/day CMS-017 (dissolved in 1 ml normal saline) applied by intramuscular injection, once per day.
The treatment lasted for 4 weeks, and observation continued for another one week after termination of treatment. 1 ml blood samples were drawn from the external jugular vein on days 0, 7, 14, 21, 28, and 35 from the start of treatment. The sera were isolated^[4] and stored at −20° C. until analysis.
DHBV DNA probe was fluorescent-labeled according to the labeling kit protocol from the manufacturer (Roche Co.). Duck sera were dot-blotted (2 dot per sample) onto nitrocellulose membrane and hybridized with fluorescent-labeled probe for DHBV DNA quantitation^[3]. DHBV DNA 40 μl+DHBsAg 100 μl was used as internal standard. CDP-Star fluorimetry reagent was used for amplification of the fluorescence. Vuego Scan (Brisa-620st) scanner was used for film scanning, and Discovery Series Quantity One software for quantitative analysis of the blots. The blot value was described as “volume” (volume=intensity×mm^2)
DHBsAg level was determined by ELISA method^[5-8], and the O.D value was obtained by ELISA reader (Bio-TEK Co.) at 490 nm.

[2] = system: human hepatitis B virus (HBV), 2.2.15 cell line; test: Test 2: inhibition of HBV-DNA in 2.2.15 cells (fluorescence quantitative PCR); assay type: cell-based; conditions: 160 μg/ml
Method: The preparation and incubation of cell suspension was repeated as in test 1 above, but at the peptide concentration of 160 μg/ml.

[3] = system: human hepatitis B virus (HBV), 2.2.15 cell line; test: Test 1: inhibition of HBsAg and HBeAg in 2.2.15 cells (ELISA); assay type: cell-based; conditions: 400 μg/ml
Method: 2.2.15 cells at log phase were harvested and adjusted to 2×10^6/ml with MEM (containing 10% fetal bovine serum, […]). The suspension was inoculated on a 24-well culture plate with 1.5 ml per well, and incubated at 37° C., 5% CO2 for 48 hours for attachment. The peptides were added to the final concentration of 400 μg/ml with 3 parallel wells per sample. One set of blank control (3 wells) was also prepared, in which the peptide was replaced with culture medium. The plate was incubated at 37° C. for 4 days, the culture medium was then exchanged with freshly prepared medium (of the same composition as the original), and the plate was incubated for a further 4 days. By the end of incubation, the supernatants of the culture were collected, and the titers of HBsAg and HBeAg were determined by ELISA method according to the instruction of the detection kit manufacturer.

[4] = system: carrageenin induced foot swelling; test: carrageenin induced foot swelling in rats; assay type: in vivo, Wistar rats
Method: Wistar rats were divided randomly into DXM group (0.2 mg/kg/day), saline control group (1 ml/day), and three dosages of CMS-030 groups (2, 10, 20 μg/ml/day). All of the drugs were diluted to 0.5 ml with saline, and were administered intraperitoneally (i.p) daily. Two weeks after drug administration, 0.15 ml of 1% carrageenin saline solution was applied to the right foot by subcutaneous injection. 0.5 hr later, the circumference of right foot was measured precisely, and foot swelling was calculated by subtracting the pre-challenge circumference from the post-challenge value Inhibition index (%)=(foot swelling of saline control group−foot swelling of drug group)/foot swelling of saline control group×100%.

[5] = Week 5 (one week after termination of treatment)
[6] = 0.5 hr after carrageenin, 0.2 mg/kg/d
[7] = human hepatitis B virus, 2.2.15 cell line, 48 h

For “IVTNTT [CMS-017, Ile-Val-Thr-Asn-Thr-Thr]”, the “Serum DHBV DNA titer” value ([1]; Pre-treatment, 200 μg/kg/day i.m. group) was 2207.0 ± 237.5 volume, the “Serum DHBsAg O.D. value” ([1]; Pre-treatment, 200 μg/kg/day i.m. group, 490 nm) was 0.928 ± 0.402 and the “Serum DHBV DNA titer” value ([1]; Week 1, 200 μg/kg/day i.m.) was 1991.8 ± 378.9 volume. The “Serum DHBsAg O.D. value” ([1]; Week 1, 200 μg/kg/day i.m.) was 0.761 ± 0.328, the “Serum DHBV DNA titer” value ([1]; Week 2, 200 μg/kg/day i.m.) was 1925.0 ± 549.9 volume and the “Serum DHBsAg O.D. value” ([1]; Week 2, 200 μg/kg/day i.m.) was 0.668 ± 0.310. For the same compound, the “Serum DHBV DNA titer” value ([1]; Week 3, 200 μg/kg/day i.m.) was 1743.9 ± 555.0 volume, the “Serum DHBsAg O.D. value” ([1]; Week 3, 200 μg/kg/day i.m.) was 0.551 ± 0.268 and the “Serum DHBV DNA titer” value ([1]; Week 4, 200 μg/kg/day i.m.) was 1544.9 ± 389.7 volume. The “Serum DHBsAg O.D. value” ([1]; Week 4, 200 μg/kg/day i.m.) was 0.479 ± 0.279, the “Serum DHBV DNA titer” value [1, 5] was 1742.7 ± 437.0 volume and the “Serum DHBsAg O.D. value” [1, 5] was 0.488 ± 0.182. The “rebound of serum DHBV DNA and DHBsAg” value ([1]; upon discontinuation of treatment for 7 days) was “rebound was not observed”, the “% HBV-DNA inhibition” value ([2]; 2.2.15 cells) was 90.8%* and the “Inhibition ratio to HBeA” value ([3]; 2.2.15 cells, 8 days) was 62.2%*. The “Inhibition ratio to HBsA:” value ([3]; 2.2.15 cells, 8 days) was 68.6%*.
With `C[C@@H]1C[C@H]2[C@@H]3CCC4=CC(=O)C=C[C@]4(C)[C@@]3(F)[C@@H](O)C[C@]2(C)[C@@]1(O)C(=O)CO` [DXM, Dexamethasone] the “Inhibition Index 0.5 hr” value [4, 6] was 63.0** %, the “Swelling 0.5 hr” value [4, 6] was 2.74 ± 0.10 cm and the Pre-challenge circumference ([4]; right foot, 0.2 mg/kg/d i.p., two weeks) was 2.49 ± 0.05 cm.
In the case of `C[C@H](N)C(=O)N[C@@H](C)C(=O)N[C@@H](Cc1ccccc1)C(=O)O` [CMS-023, Ala Ala Phe] (H-Ala-Ala-Phe-OH; N-terminus and C-terminus assumed), the “% HBV-DNA inhibition” value ([2]; human hepatitis B virus, 2.2.15 cell line) is reported as 70.8%*, the “Inhibition ratio to HBeA” value [3, 7] is reported as 53.7%* and the “Inhibition ratio to HBsA:” value [3, 7] is reported as 58.4%*.
